Laboratory results taken from patent US20230295234A1, “ANTIMICROBIAL PEPTIDOMIMETICS” (SPEXIS AG, priority 2020, published 2023).
Like-named read-outs stand apart in the source and are kept apart here. Peptide text beside a SMILES is read from it.

Key:
[1] = test system: Klebsiella pneumoniae SSI3010; settings: SSI3010
Outline: (§1)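 Broth microdilution; cation-adjusted MHII; inoculum ~5×10^5 CFU/mL from 0.5 McFarland saline suspension; peptide two-fold serial dilutions; polysorbate 80 0.002% final; peptide stock 1 mg/mL in water.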

[2] = test system: Escherichia coli ATCC 25922; settings: ATCC 25922
Outline: as §1

[3] = test system: Escherichia coli MCR-1 Af 45
Outline: as §1

[4] = test system: human red blood cells (hRBC); assay: Hemolysis of human red blood cells; type: cell-based; settings: red cells of human, 1 h
Outline: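 PBS-washed human red blood cells (20% v/v) were incubated with peptide at 200 μg/mL for 1 h at 37 °C with shaking. Supernatant OD was read at 540 nm after 8-fold dilution. Hemolysis is expressed as percent of the water control.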

[5] = Mueller-Hinton broth II, 18-20 hours at 35° C.

Structure (SMILES): CC[C@H](C)[C@H](NC(=O)[C@@H]1C[C@@H](O)CN1C(=O)[C@@H](N)C(C)C)C(=O)N[C@H](C(=O)N[C@@H](Cc1ccc(O)cc1)C(=O)N[C@@H]1C(=O)N[C@@H](CC(N)=O)C(=O)N[C@@H](CCCNC(=N)N)C(=O)N[C@@H](CCN)C(=O)N[C@@H]([C@@H](C)O)C(=O)N[C@H](CCN)C(=O)N[C@@H](CO)C(=O)N[C@H](C(=O)N[C@@H](CCN)C(=O)N[C@@H](CCCNC(=N)N)C(=O)N[C@@H](Cc2ccc(O)cc2)C(=O)O)CSSC1(C)C)[C@@H](C)O [Example 170] (HELM PEPTIDE1{V.[Hyp].I.T.Y.[Pen].N.R.[Dab].T.[NCC[C@@H](N[*:1])C(=O)[*:2]].S.C.[Dab].R.Y}$PEPTIDE1,PEPTIDE1,6:R3-13:R3$$$V2.0)
- Klebsiella pneumoniae SSI3010 MIC [1]: 0.5 µg/mL
- Escherichia coli ATCC 25922 MIC [2]: 0.25 µg/mL
- Escherichia coli MCR-1 Af 45 MIC [3, 5]: 0.5 µg/mL
- Hemolysis at 0.2 g/L [4]: 0%

Structure (SMILES): CC[C@H](C)[C@H](NC(=O)[C@@H]1C[C@@H](O)CN1C(=O)[C@@H](N)C(C)C)C(=O)N[C@H](C(=O)N[C@@H](Cc1ccc(O)cc1)C(=O)N[C@@H]1C(=O)N[C@@H](CC(N)=O)C(=O)N[C@@H](CCCNC(=N)N)C(=O)N[C@@H](CCN)C(=O)N[C@@H]([C@@H](C)O)C(=O)N[C@H](CCN)C(=O)N[C@@H](Cc2ccc(O)cc2)C(=O)N[C@H](C(=O)N[C@@H](CCN)C(=O)N[C@@H](CCCNC(=N)N)C(=O)N[C@@H](Cc2ccc(O)cc2)C(=O)O)CSSC1(C)C)[C@@H](C)O [Example 171] (HELM PEPTIDE1{V.[Hyp].I.T.Y.[Pen].N.R.[Dab].T.[NCC[C@@H](N[*:1])C(=O)[*:2]].Y.C.[Dab].R.Y}$PEPTIDE1,PEPTIDE1,6:R3-13:R3$$$V2.0)
- Klebsiella pneumoniae SSI3010 MIC [1]: 0.25 µg/mL
- Escherichia coli ATCC 25922 MIC [2]: 0.5 µg/mL
- Escherichia coli MCR-1 Af 45 MIC [3, 5]: 0.5 µg/mL
- Hemolysis at 0.2 g/L [4]: 0%

Structure (SMILES): CC[C@H](C)[C@H](NC(=O)[C@@H]1C[C@@H](O)CN1C(=O)[C@@H](N)C(C)C)C(=O)N[C@H](C(=O)N[C@@H](Cc1ccc(O)cc1)C(=O)N[C@@H]1C(=O)N[C@@H](CC(N)=O)C(=O)N[C@@H](CCCNC(=N)N)C(=O)N[C@@H](CCN)C(=O)N[C@@H]([C@@H](C)O)C(=O)N[C@H](CCN)C(=O)N[C@@H](Cc2c[nH]c3ccccc23)C(=O)N[C@H](C(=O)N[C@@H](CCN)C(=O)N[C@@H](CCCNC(=N)N)C(=O)N[C@@H](Cc2ccc(O)cc2)C(=O)O)CSSC1(C)C)[C@@H](C)O [Example 172] (HELM PEPTIDE1{V.[Hyp].I.T.Y.[Pen].N.R.[Dab].T.[NCC[C@@H](N[*:1])C(=O)[*:2]].W.C.[Dab].R.Y}$PEPTIDE1,PEPTIDE1,6:R3-13:R3$$$V2.0)
- Klebsiella pneumoniae SSI3010 MIC [1]: 0.5 µg/mL
- Escherichia coli ATCC 25922 MIC [2]: 0.5 µg/mL
- Escherichia coli MCR-1 Af 45 MIC [3, 5]: 0.5 µg/mL
- Hemolysis at 0.2 g/L [4]: 0%

Structure (SMILES): CC[C@H](C)[C@H](NC(=O)[C@@H]1C[C@@H](O)CN1C(=O)[C@@H](N)C(C)C)C(=O)N[C@H](C(=O)N[C@@H](Cc1ccc(O)cc1)C(=O)N[C@@H]1C(=O)N[C@@H](CC(N)=O)C(=O)N[C@@H](CCCNC(=N)N)C(=O)N[C@@H](CCN)C(=O)N[C@@H]([C@@H](C)O)C(=O)N[C@H](CCN)C(=O)N[C@@H](CC(N)=O)C(=O)N[C@H](C(=O)N[C@@H](CCN)C(=O)N[C@@H](CCCNC(=N)N)C(=O)N[C@@H](Cc2ccc(O)cc2)C(=O)O)CSSC1(C)C)[C@@H](C)O [Example 173] (HELM PEPTIDE1{V.[Hyp].I.T.Y.[Pen].N.R.[Dab].T.[NCC[C@@H](N[*:1])C(=O)[*:2]].N.C.[Dab].R.Y}$PEPTIDE1,PEPTIDE1,6:R3-13:R3$$$V2.0; N-terminus and C-terminus assumed)
- Klebsiella pneumoniae SSI3010 MIC [1]: 0.5 µg/mL
- Escherichia coli ATCC 25922 MIC [2]: 0.25 µg/mL
- Escherichia coli MCR-1 Af 45 MIC ([3]; MCR-1 Af 45): 0.25 µg/mL
- Hemolysis at 0.2 g/L [4]: 0%

Structure (SMILES): CC[C@H](C)[C@H](NC(=O)[C@@H]1C[C@@H](O)CN1C(=O)[C@@H](N)C(C)C)C(=O)N[C@H](C(=O)N[C@@H](Cc1ccc(O)cc1)C(=O)N[C@@H]1C(=O)N[C@@H](CC(N)=O)C(=O)N[C@@H](CCCNC(=N)N)C(=O)N[C@@H](CCN)C(=O)N[C@@H]([C@@H](C)O)C(=O)N[C@H](CCN)C(=O)N[C@@H](CCN)C(=O)N[C@H](C(=O)N[C@@H](CCN)C(=O)N[C@@H](CCCNC(=N)N)C(=O)N[C@@H](Cc2ccc(O)cc2)C(=O)O)CSSC1(C)C)[C@@H](C)O [Example 174] (HELM PEPTIDE1{V.[Hyp].I.T.Y.[Pen].N.R.[Dab].T.[NCC[C@@H](N[*:1])C(=O)[*:2]].[Dab].C.[Dab].R.Y}$PEPTIDE1,PEPTIDE1,6:R3-13:R3$$$V2.0)
- Klebsiella pneumoniae SSI3010 MIC [1]: 0.25 µg/mL
- Escherichia coli ATCC 25922 MIC [2]: 0.125 µg/mL
- Escherichia coli MCR-1 Af 45 MIC [3, 5]: 0.0625 µg/mL
- Hemolysis at 0.2 g/L [4]: 0%

Structure (SMILES): CC[C@H](C)[C@H](NC(=O)[C@@H]1C[C@@H](O)CN1C(=O)[C@@H](N)C(C)C)C(=O)N[C@H](C(=O)N[C@@H](Cc1ccc(O)cc1)C(=O)N[C@@H]1C(=O)N[C@@H](CC(N)=O)C(=O)N[C@@H](CCCNC(=N)N)C(=O)N[C@@H](CCN)C(=O)N[C@@H]([C@@H](C)O)C(=O)N[C@H](CCN)C(=O)N[C@@H](CCCCN)C(=O)N[C@H](C(=O)N[C@@H](CCN)C(=O)N[C@@H](CC(C)C)C(=O)N[C@@H](Cc2ccc(O)cc2)C(=O)O)CSSC1(C)C)[C@@H](C)O [Example 175] (HELM PEPTIDE1{V.[Hyp].I.T.Y.[Pen].N.R.[Dab].T.[NCC[C@@H](N[*:1])C(=O)[*:2]].K.C.[Dab].L.Y}$PEPTIDE1,PEPTIDE1,6:R3-13:R3$$$V2.0)
- Klebsiella pneumoniae SSI3010 MIC [1]: 0.5 µg/mL
- Escherichia coli ATCC 25922 MIC [2]: 0.25 µg/mL
- Escherichia coli MCR-1 Af 45 MIC [3, 5]: 0.25 µg/mL
- Hemolysis at 0.2 g/L [4]: 0%

Structure (SMILES): CC[C@H](C)[C@H](NC(=O)[C@@H]1C[C@@H](O)CN1C(=O)[C@@H](N)C(C)C)C(=O)N[C@H](C(=O)N[C@@H](Cc1ccc(O)cc1)C(=O)N[C@@H]1C(=O)N[C@@H](CC(N)=O)C(=O)N[C@@H](CCCNC(=N)N)C(=O)N[C@@H](CCN)C(=O)N[C@@H]([C@@H](C)O)C(=O)N[C@H](CCN)C(=O)N[C@@H](CCCCN)C(=O)N[C@H](C(=O)N[C@@H](CCN)C(=O)N[C@@H](CO)C(=O)N[C@@H](Cc2ccc(O)cc2)C(=O)O)CSSC1(C)C)[C@@H](C)O [Example 176] (HELM PEPTIDE1{V.[Hyp].I.T.Y.[Pen].N.R.[Dab].T.[NCC[C@@H](N[*:1])C(=O)[*:2]].K.C.[Dab].S.Y}$PEPTIDE1,PEPTIDE1,6:R3-13:R3$$$V2.0)
- Klebsiella pneumoniae SSI3010 MIC [1]: 0.5 µg/mL
- Escherichia coli ATCC 25922 MIC [2]: 0.25 µg/mL
- Escherichia coli MCR-1 Af 45 MIC [3, 5]: 0.25 µg/mL
- Hemolysis at 0.2 g/L [4]: 0%

Structure (SMILES): CC[C@H](C)[C@H](NC(=O)[C@@H]1C[C@@H](O)CN1C(=O)[C@@H](N)C(C)C)C(=O)N[C@H](C(=O)N[C@@H](Cc1ccc(O)cc1)C(=O)N[C@@H]1C(=O)N[C@@H](CC(N)=O)C(=O)N[C@@H](CCCNC(=N)N)C(=O)N[C@@H](CCN)C(=O)N[C@@H]([C@@H](C)O)C(=O)N[C@H](CCN)C(=O)N[C@@H](CCCCN)C(=O)N[C@H](C(=O)N[C@@H](CCN)C(=O)N[C@@H](CCN)C(=O)N[C@@H](Cc2ccc(O)cc2)C(=O)O)CSSC1(C)C)[C@@H](C)O [Example 177] (HELM PEPTIDE1{V.[Hyp].I.T.Y.[Pen].N.R.[Dab].T.[NCC[C@@H](N[*:1])C(=O)[*:2]].K.C.[Dab].[Dab].Y}$PEPTIDE1,PEPTIDE1,6:R3-13:R3$$$V2.0)
- Klebsiella pneumoniae SSI3010 MIC [1]: 0.25 µg/mL
- Escherichia coli ATCC 25922 MIC [2]: 0.125 µg/mL
- Escherichia coli MCR-1 Af 45 MIC [3, 5]: 0.125 µg/mL
- Hemolysis at 0.2 g/L [4]: 0%

Structure (SMILES): CC[C@H](C)[C@H](NC(=O)[C@@H]1C[C@@H](O)CN1C(=O)[C@@H](N)C(C)C)C(=O)N[C@H](C(=O)N[C@@H](Cc1ccc(O)cc1)C(=O)N[C@@H]1C(=O)N[C@@H](CC(N)=O)C(=O)N[C@@H](CCCNC(=N)N)C(=O)N[C@@H](CCN)C(=O)N[C@@H]([C@@H](C)O)C(=O)N[C@H](CCN)C(=O)N[C@@H](CCCCN)C(=O)N[C@H](C(=O)N[C@@H](CCN)C(=O)N[C@@H](CCCCN)C(=O)N[C@@H](Cc2ccc(O)cc2)C(=O)O)CSSC1(C)C)[C@@H](C)O [Example 178] (HELM PEPTIDE1{V.[Hyp].I.T.Y.[Pen].N.R.[Dab].T.[NCC[C@@H](N[*:1])C(=O)[*:2]].K.C.[Dab].K.Y}$PEPTIDE1,PEPTIDE1,6:R3-13:R3$$$V2.0)
- Klebsiella pneumoniae SSI3010 MIC [1]: 0.5 µg/mL
- Escherichia coli ATCC 25922 MIC [2]: 0.25 µg/mL
- Escherichia coli MCR-1 Af 45 MIC [3, 5]: 0.125 µg/mL
- Hemolysis at 0.2 g/L [4]: 0%

Structure (SMILES): CC[C@H](C)[C@H](NC(=O)[C@@H]1C[C@@H](O)CN1C(=O)[C@@H](N)C(C)C)C(=O)N[C@H](C(=O)N[C@@H](Cc1ccc(O)cc1)C(=O)N[C@@H]1C(=O)N[C@@H](CC(N)=O)C(=O)N[C@@H](CCCNC(=N)N)C(=O)N[C@@H](CCN)C(=O)N[C@@H]([C@@H](C)O)C(=O)N[C@H](CCN)C(=O)N[C@@H](CCCCN)C(=O)N[C@H](C(=O)N[C@@H](CCN)C(=O)N[C@@H](CCCN)C(=O)N[C@@H](Cc2ccc(O)cc2)C(=O)O)CSSC1(C)C)[C@@H](C)O [Example 179] (HELM PEPTIDE1{V.[Hyp].I.T.Y.[Pen].N.R.[Dab].T.[NCC[C@@H](N[*:1])C(=O)[*:2]].K.C.[Dab].[Orn].Y}$PEPTIDE1,PEPTIDE1,6:R3-13:R3$$$V2.0)
- Klebsiella pneumoniae SSI3010 MIC [1]: 0.25 µg/mL
- Escherichia coli ATCC 25922 MIC [2]: 0.125 µg/mL
- Escherichia coli MCR-1 Af 45 MIC [3, 5]: 0.0625 µg/mL
- Hemolysis at 0.2 g/L [4]: 0%
